According to US6590140B1, “Metal-regulated transporters and uses therefor” (Trustees of Dartmouth College, priority 1996, dated 2003):

What was measured:
[1] = target: T1, IRT1 (Arabidopsis thaliana, UniProt Q38856); experiment: 55Fe uptake in fet3 fet4 yeast expressing IRT1; assay type: cell-based; conditions: for effect on the rate of iron uptake by IRT1: 10 μM metal, 10 times the radiolabeled iron, Fe(II) with 1 mM ascorbate
T1 construct: contain a single 1017 bp open reading frame capable of encoding a polypeptide of 339 amino acids; expressed in transfected cells; host or cells: S. cerevisiae fet3 fet4 strain DEY1453 carrying pIRT-1 (pFL61 library vector, phosphoglycerate kinase promoter)
T1 sequence (Q38856 9-347 limits assumed): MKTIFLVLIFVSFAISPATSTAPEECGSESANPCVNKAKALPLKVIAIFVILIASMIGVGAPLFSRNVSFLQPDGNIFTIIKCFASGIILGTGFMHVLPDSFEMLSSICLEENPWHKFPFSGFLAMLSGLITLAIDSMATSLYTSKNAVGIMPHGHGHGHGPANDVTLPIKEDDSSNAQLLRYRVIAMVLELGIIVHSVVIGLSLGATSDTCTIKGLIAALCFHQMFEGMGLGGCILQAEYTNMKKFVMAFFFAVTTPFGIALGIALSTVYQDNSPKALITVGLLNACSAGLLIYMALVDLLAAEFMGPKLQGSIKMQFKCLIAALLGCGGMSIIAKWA
Description: Iron uptake assays using ^55FeCl3 (Amersham, Arlington Heights, Ill.) were performed as described (Eide, D. et al. (1992) J. Biol. Chem. 267: 20774-20781) except that MGN (10 mM Mes/2% glucose/1 mM nitrilotriacetic acid, pH 6.1) was used for the assay buffer. Where noted, 1 mM sodium ascorbate was added to reduce Fe(III) to Fe(II). Stock solutions of the chloride salt of each metal (except for iron) were prepared in water at a concentration of 100 mM and diluted into MGN to a final concentration of 10 μM before addition of the cells. The ^56FeCl3 stock was 50 mM prepared in 0.1 M HCl. The statistical significance of differences in values relative to controls was determined using STATVIEW software (Abacus Concepts, Berkeley, Calif.). Data was subjected to one-way analysis of variance (ANOVA) followed by a Scheffe's test.
To determine if IRT1 encodes an iron transporter, ^55Fe uptake rates were examined in a fet3 fet4 strain expressing IRT1. Little or no uptake was detected at 0° C. for either IRT1-expressing or untransformed control cells (FIG. 2A). The fet3 fet4 mutant strain DEY1453 (circles) and DEY1453 transformed with pIRT-1 (squares) were grown to exponential phase in SD glucose and assayed for iron uptake with ^55Fe. (A) Time- and temperature-dependence of iron accumulation assayed in MGN with 1 mM ascorbate and 5 μM ^55FeCl3 assayed at 30° C. (open symbols) or 0° C. (solid symbols). The dashed line marked with open triangles represents the IRT1-dependent accumulation, i.e., the accumulation of iron by the untransformed strain at 30° C. subtracted from the accumulation of the pIRT-1-bearing strain at 30° C. […] The IRT1-dependent rate was ≈3-fold higher than the control uptake rate. No increased uptake was apparent in strains bearing either of two randomly selected clones from the library, indicating the dependence of these uptake effects on expression of IRT1. The iron uptake activity dependent on IRT1 expression was also concentration-dependent and saturable (FIG. 2B). The same strains as in A were assayed for iron uptake rates for 10 min over a range of concentrations. The dashed lines marked with open triangles represents the IRT1-dependent uptake rate, i.e., background uptake rate of the untransformed strain subtracted from the corresponding rate of the pIRT-1-bearing strains. (Inset) Eadie-Hofstee plot of the IRT1-dependent uptake data. Each point represents the mean of three experiments each performed in duplicate. The standard deviation within each experiment was less that 20% of the corresponding mean.
The experiments described above were conducted with iron supplied as Fe(II), i.e., in the presence of ascorbate, an agent capable of reducing Fe(III) to Fe(II). To determine if Fe(II) is the preferred substrate over Fe(III), assays were carried out in the absence of ascorbate where iron is supplied to the cells as Fe(III). […] The fet3 fet4 mutant strain DEY1453 and DEY1453 transformed with pIRT-1 were grown to exponential phase is SD glucose and assayed for iron uptake with 1 μM FeCl3 in MGN for 10 min. The values shown are the IRT1-dependent rates, i.e., the untransformed strain control values were subtracted from the DEY1453 pIRT-1 values and represent the means of four replicates. The asterisks indicate significant of differences from the control values (P<0.05). Assays were performed in the absence [Fe(III)] or presence [Fe(II)] of 1 mM ascorbate. […] Although yeast are capable of reducing Fe(III) to Fe(II) through the action of plasma membrane Fe(III) reductases, this rate of cell-mediated reduction is slower than reduction by ascorbate and therefore may be rate-limiting for IRT1-dependent uptake. To assess if metals other than iron are potential substrates for IRT1, several transition metals were tested for their ability to inhibit accumulation of iron in IRT1-expressing cells (FIG. 3B). Assays were conducted in the absence (−) or presence of 10 μM metal. […]

[2] = target: T1, IRT1; experiment: 55Fe uptake in fet3 fet4 yeast expressing IRT1; assay type: cell-based; conditions: metal at 100-fold excess

SMILES	inhibition of IRT1-mediated Fe(II) uptake in yeast (summary statement) [1]	effect on the rate of iron uptake by IRT1 ([1]; 10 min)	inhibition of IRT1-dependent iron uptake [2]	also measured
[Cl-].[Cl-].[Co+2] [Co]	inhibitors of IRT1-mediated Fe(II) uptake	no significant effect	inhibit IRT1-dependent iron uptake	–
[Cl][Cu][Cl] [Cu]	–	no significant effect	–	–
[Fe+2] [Fe(II)]	–	potent inhibitors	–	IRT1-dependent uptake rate relative to control uptake rate ([1]; 5 μM 55FeCl3, 1 mM ascorbate, 30° C., first 10 min): ≈ 3 fold; Vmax of IRT1-mediated iron uptake ([1]; iron supplied as Fe(II) (1 mM ascorbate), 10 min, DEY1453 pIRT-1 minus untransformed strain): 1.9±0.4 pmol per min per 10^6 cells; Km ([1]; iron supplied as Fe(II) (1 mM ascorbate), 10 min, DEY1453 pIRT-1 minus untransformed strain, read-out: apparent Km of IRT1-mediated iron uptake): 6 ± 1 µM
[Cl][Fe]([Cl])[Cl] [Fe(III)]	–	–	–	iron uptake rate in the absence of ascorbate relative to rate with ascorbate ([1]; 1 μM FeCl3 in MGN, 10 min, iron supplied as Fe(III)): ≈ 10%
[Cl][Mn][Cl] [Mn]	inhibitors of IRT1-mediated Fe(II) uptake	no significant effect	inhibit IRT1-dependent iron uptake	–
[Cl][Ni][Cl] [Ni]	–	no significant effect	–	–
[Zn+2] [zinc]	inhibitors of IRT1-mediated Fe(II) uptake	no significant effect	inhibit IRT1-dependent iron uptake	–
